Data published in patent US20260265239A1, “CRYSTAL FORM OF 2,6-PIPERIDINEDIONE COMPOUND, AND PREPARATION METHOD THEREFOR AND USE THEREOF” (ZHANGZHOU PIEN TZE HUANG PHARMACEUTICAL CO., LTD., priority 2023, published 2026).
Counter-ions that a name gives are not always drawn.

Experiments:
SU-DHL-2 = assay: Anti-proliferative effect in lymphoma cell line SU-DHL-2 (CellTiter-Glo); format: cell-based, human
Procedure: Objective: This experiment was conducted to detect the inhibitory effect of the compound of formula (I) on cell proliferation in the lymphoma cell line SU-DHL-2.
The tumor cell lines were cultured under the above culture conditions in an incubator at 37° C. and 5% CO2. The cells were passaged periodically, and those in the logarithmic growth phase were harvested for seeding.
• (1) The cells were stained with trypan blue, and the viable cells were counted. • (2) The cell concentration was adjusted to an appropriate concentration.
• (3) 50 μL of cell suspension was added to each well of the culture plate as shown in the figure above. • (4) The culture plate was incubated overnight in an incubator at 37° C., 5% CO2, and 100% relative humidity.
The drug was administered with an Echo655 instrument. A dosing volume of 50 nL was used, with a final DMSO concentration of 0.1%. The culture plate was centrifuged at 1000 rpm for 1 min and incubated at 37° C., 5% CO2, and 100% relative humidity for 4 days. […]

[1] = Pharmacokinetic evaluation in mice; format: in vivo, C57BL/6 or C57 male mice
Description: C57BL/6 or C57 male mice were selected as the test animals for this study. The LC/MS/MS method was employed to quantitatively determine the plasma drug concentrations at various time points after intravenous injection or intragastric administration of the test compound, aiming to evaluate the pharmacokinetic characteristics of the compound of the present disclosure in mice.
C57BL/6 or C57 mice (male, 20 to 30 g, 7 to 10 weeks old, Beijing Vital River).
A clear solution of the test compound was injected intravenously into the tail vein of C57BL/6 mice (fasted overnight) (vehicle: 10% DMSO/10% solutol/80% H2O), or administered intragastrically to C57 mice (fed). […] The mixture was thoroughly vortexed and mixed, and centrifuged at 6000 g for 3 minutes at 2 to 8° C. […] The mixture was thoroughly vortexed and mixed, and centrifuged at 6000 g for 3 minutes at 2 to 8° C. Plasma drug concentrations were determined by the LC-MS/MS method, and relevant pharmacokinetic parameters were calculated using Phoenix WinNonlin 8.2.0 pharmacokinetic software with non-compartmental model linear-log trapezoidal method.

[2] = Pharmacokinetic evaluation in beagle dogs; format: in vivo
Description: Male beagle dogs were selected as the experimental animals in this study. The LC/MS/MS method was employed to quantitatively determine the plasma drug concentrations at different time points after intravenous injection or intragastric administration of the test compound, aiming to evaluate the pharmacokinetic characteristics of the compound of the present disclosure in beagle dogs.
Beagle dogs (male, 7 to 10 kg, Beijing Mars Biotechnology Co., Ltd.).
A solution of the test compound was slowly injected intravenously into beagle dogs (fed) via the peripheral vein (vehicle: 5% DMSO/10% Solutol/85% H2O), or administered intragastrically to beagle dogs (fed). For intravenous administration, 0.5 mL of blood was collected from the peripheral vein at 0.083, 0.25, 0.5, 1, 2, 4, 6, 8, and 24 h after administration, placed in EDTA-2K anticoagulant tubes, and centrifuged at 3200 g for 10 minutes at 2 to 8° C. to separate the supernatant. For intragastric administration, 0.5 mL of blood was collected from the peripheral vein at 0.083, 0.25, 0.5, 1, 2, 4, 6, 8, and 24 h after administration, placed in EDTA-2K anticoagulant tubes, and centrifuged at 3200 g for 10 minutes at 2 to 8° C. to separate the supernatant. Plasma drug concentrations were determined by the LC-MS/MS method, and relevant pharmacokinetic parameters were calculated using Phoenix WinNonlin 6.3 or 8.3.5 pharmacokinetic software with non-compartmental model linear-log trapezoidal method.

[3] = Intragastric administration (10 mg/kg) (fed)
[4] = Intragastric administration, 5 mg/kg
[5] = Intragastric administration, 15 mg/kg
[6] = Intravenous Injection (0.5 mg/kg)

## O=C1CCC(c2noc3ccc4c(NC(=O)CN5CCN(C[C@H]6CC[C@H](n7cc(NC(=O)c8coc(-c9ccnc(NCC%10CC%10)c9)n8)c(C(F)F)n7)CC6)CC5)cccc4c23)C(=O)N1 (stereo partly shown) [Hydrochloride of Compound of Formula (I)]
SU-DHL-2
  inhibitory effect on cell proliferation (conclusion): excellent inhibitory effect
[1]; [3]
  Area Under the Drug-Time Curve (0-inf): 4.47 µM·h
  Peak Concentration: 0.54 µM
  Time to Peak Concentration: 1.00 h
[1]; Intravenous Injection (2 mg/kg) (fasted)
  Area Under the Drug-Time Curve (0-inf): 5.40 µM·h
[2]; [4]
  Area Under the Drug-Time Curve (0-inf): 3.20 µM·h
  Peak Concentration: 0.41 µM
  Time to Peak Concentration: 4.00 h
[2]; [5]
  Area Under the Drug-Time Curve (0-inf): 8.02 µM·h
  Peak Concentration: 0.87 µM
  Time to Peak Concentration: 4.00 h
[2]; [6]
  Apparent Distribution Volume: 5.83 L/kg
  Area Under the Drug-Time Curve (0-inf): 0.44 µM·h
